Data on 14 compounds can be found in US11667602B2, “Compounds and their use” (AstraZeneca AB, priority 2020, dated 2023).

Structures are written as SMILES. ≈ marks a conversion by molar mass, not a printed value.

Data set [1] is described as follows: Human Plasma Protein Binding (Test B). The format is in vitro ADME. The following applies: fraction unbound (fu). An outline of the steps:
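Values given as % free (fu) in human plasma, using the method of Wernevik et al. (2020). For compounds tested more than once, the arithmetic mean is given.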

The target of data set [2] is T1, human RXFP1 (Homo sapiens, UniProt Q9HBX9).
T1 sequence (Q9HBX9 1-757): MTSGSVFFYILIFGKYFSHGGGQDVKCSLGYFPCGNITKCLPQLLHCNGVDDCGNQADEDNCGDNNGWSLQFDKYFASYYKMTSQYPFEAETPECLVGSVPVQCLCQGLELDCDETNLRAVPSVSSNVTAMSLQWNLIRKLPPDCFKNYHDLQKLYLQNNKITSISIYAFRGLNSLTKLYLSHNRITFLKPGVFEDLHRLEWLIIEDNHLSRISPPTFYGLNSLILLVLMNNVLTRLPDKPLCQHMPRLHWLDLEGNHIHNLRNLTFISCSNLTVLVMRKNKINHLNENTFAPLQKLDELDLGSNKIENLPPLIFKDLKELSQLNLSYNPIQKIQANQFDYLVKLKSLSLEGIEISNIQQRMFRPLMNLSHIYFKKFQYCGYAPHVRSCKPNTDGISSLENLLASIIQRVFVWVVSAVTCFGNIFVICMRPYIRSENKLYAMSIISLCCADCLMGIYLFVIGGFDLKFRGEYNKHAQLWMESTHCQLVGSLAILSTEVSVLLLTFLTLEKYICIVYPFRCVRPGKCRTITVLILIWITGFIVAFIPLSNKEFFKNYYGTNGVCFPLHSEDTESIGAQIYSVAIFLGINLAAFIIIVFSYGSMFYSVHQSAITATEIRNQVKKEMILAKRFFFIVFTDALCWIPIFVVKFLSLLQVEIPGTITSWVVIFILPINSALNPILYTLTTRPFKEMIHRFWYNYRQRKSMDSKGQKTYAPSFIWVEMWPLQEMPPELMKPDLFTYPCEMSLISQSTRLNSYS
The data set can be described thus: RXFP1 Hu cAMP (Test A). Type of data set: cell-based. Also on record: expressed in transfected cells; host or cells: Jump-In T-REx CHO-K1 cells (ThermoFisher), induced with 10 ng/ml doxycycline for 24 h. The note with it: RXFP1 Hu cAMP; for EC50: read-out: Test A EC50. The method, boiled down:
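Read-out is HTRF signal, inversely proportional to cAMP, converted to cAMP amount by standard curve. Stimulation occurred in inducible CHO-K1 cells expressing the human receptor with phosphodiesterases blocked by 0.5 mM IBMX.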

A short description of data set [3]: Human Liver Microsomal Stability (Test C). The format is in vitro ADME. The following applies: human, liver microsomes. An outline of the steps:
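CLint (μl/min/mg protein) derived from compound depletion in human liver microsomes following a published standardized early-DMPK protocol; replicate determinations given as arithmetic mean.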

Data set [4] in a line: Rat Hepatocyte Stability (Test E). Type of data set: in vitro ADME. The note with it: rat, hepatocytes, geometric mean if run multiple times. The method, boiled down:
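Intrinsic clearance in rat hepatocytes, expressed as μl/min/10^6 cells, following the literature integrated DMPK panel method. Repeat determinations combined as geometric mean.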

The nature of data set [5]: Solubility (Test F). The format is physicochemical. The note with it: arithmetic mean if run multiple times. Here is the method: The assay was conducted according to the Solubility Assay described in pages 164-167 of Wernevik, J. et al., “A Fully Integrated Assay Panel for Early Drug Metabolism and Pharmacokinetics Profiling”, Assay and Drug Development Technologies, 2020, 18(4), 157-179. Data are reported in Table 36 as solubility ([…]. Where the assay was run multiple times for the same compound, the arithmetic mean is reported.

On to `COc1cc(F)c(O[C@H]2CC[C@@](C)(C(=O)O)CC2)cc1C(=O)N[C@@H]1[C@H]2CC[C@H](C2)[C@@H]1C(=O)NCC1(C)CC1` [Example 41], for which the “Test B Human Plasma Protein Binding (% free)” value in data set [1] is recorded as 8 % free. In data set [2], the “Test A Sinf” value was determined as 114% and the 50% effective concentration (EC50) was above 5500 nM. Besides, the intrinsic clearance (microsomal CLint) in data set [3] came out at 8.9 µL/min/mg. Moreover, the intrinsic metabolic clearance (hepatocyte CLint) in data set [4] is 21 µL/min/1e6 cells. Besides, the concentration in solution in data set [5] (solubility) came to 820 µM (≈ 435 µg/mL).
Consider `COc1cc(F)c(O[C@H]2CC[C@@](C)(C(=O)O)CC2)cc1C(=O)N[C@@H]1[C@H]2CC[C@H](C2)[C@@H]1C(=O)N[C@@H](C)C(C)C` [Example 42], for which the “Test B Human Plasma Protein Binding (% free)” value in data set [1] amounted to 5.4 % free. The “Test A Sinf” value in data set [2] came out at 95%. For the same compound, in data set [3], the microsomal CLint was below 3 µL/min/mg. The compound further gave an intrinsic clearance (hepatocyte CLint) in data set [4] of 19 µL/min/1e6 cells. Moreover, the solubility in data set [5] is above 1000 µM.
For `COc1cc(F)c(O[C@H]2CC[C@@](C)(C(=O)O)CC2)cc1C(=O)N[C@@H]1[C@H]2CC[C@H](C2)[C@@H]1C(=O)N[C@H](C)C(C)C` [Example 46], the “Test B Human Plasma Protein Binding (% free)” value in data set [1] is reported as 7.6 % free. In data set [2], the “Test A Sinf” value stood at 104% and the concentration for a half-maximal effect (EC50) turned out to be 71 nM. The same compound returned a microsomal CLint in data set [3] of 12 µL/min/mg. The compound further registered a hepatocyte CLint in data set [4] of 12 µL/min/1e6 cells. Moreover, in data set [5], the solubility was determined as 380 µM (≈ 202 µg/mL).
Regarding `COc1cc(F)c(O[C@H]2CC[C@@](C)(C(=O)O)CC2)cc1C(=O)N[C@@H]1[C@H]2CC[C@H](C2)[C@@H]1C(=O)NCC1(CF)CC1` [Example 48], the “Test B Human Plasma Protein Binding (% free)” value in data set [1] came to 13 % free. In data set [2], the “Test A Sinf” value stood at 96% and the EC50 stood at 380 nM. In addition, in data set [3], the microsomal CLint is below 3 µL/min/mg. The same compound displayed a hepatocyte CLint in data set [4] of 18 µL/min/1e6 cells. Besides, the solubility in data set [5] came to 1000 µM (≈ 549 µg/mL).
On to `COc1cc(F)c(O[C@H]2CC[C@@H](C(=O)O)CC2)cc1C(=O)N[C@H]1[C@@H](C(=O)Nc2ccc(F)c(C(F)(F)F)c2)[C@H]2CC[C@@H]1O2` [Example 49, (1R,4s)-4-(2-Fluoro-5-(((1S,2S,3R,4R)-3-((4-fluoro-3-(trifluoromethyl)phenyl)carbamoyl)-7-oxabicyclo[2.2.1]heptan-2-yl)carbamoyl)-4-methoxyphenoxy)cyclohexane-1-carboxylic acid], for which the “Test B Human Plasma Protein Binding (% free)” value in data set [1] is on record as 3.2 % free. In data set [2], the EC50 is above 50000 nM. In data set [3], this compound had an intrinsic metabolic clearance (microsomal CLint) below 3 µL/min/mg. The compound also showed an intrinsic clearance (hepatocyte CLint) in data set [4] below 1 µL/min/1e6 cells. For the same compound, the solubility in data set [5] turned out to be 24 µM (≈ 14.7 µg/mL).
On to `COc1cc(F)c(O[C@H]2CC[C@@H](C(=O)O)CC2)cc1C(=O)N[C@@H]1[C@H](C(=O)Nc2ccc(F)c(C(F)(F)F)c2)[C@@H]2CC[C@H]1O2` [Example 50, (1S,4s)-4-(2-Fluoro-5-(((1R,2R,3S,4S)-3-((4-fluoro-3-(trifluoromethyl)phenyl)carbamoyl)-7-oxabicyclo[2.2.1]heptan-2-yl)carbamoyl)-4-methoxyphenoxy)cyclohexane-1-carboxylic acid], for which, in data set [1], the “Test B Human Plasma Protein Binding (% free)” value is recorded as 1.9 % free. Also, the 50% effective concentration (EC50) in data set [2] was above 50000 nM. Besides, in data set [3], the intrinsic clearance (microsomal CLint) is below 3 µL/min/mg. Moreover, the intrinsic clearance (hepatocyte CLint) in data set [4] was below 1 µL/min/1e6 cells. Besides, the solubility in data set [5] was found to be 60 µM (≈ 36.8 µg/mL).
Consider `COc1cc(F)c(O[C@H]2CC[C@@](C)(C(=O)O)CC2)cc1C(=O)N[C@@H]1CC[C@@H]1C(=O)Nc1ccc(F)c(C(F)(F)F)c1` [Example 51, (1S,4s)-4-(2-Fluoro-5-(((1R,2S)-2-((4-fluoro-3-(trifluoromethyl)phenyl)carbamoyl)cyclobutyl)carbamoyl)-4-methoxyphenoxy)-1-methylcyclohexane-1-carboxylic acid], for which the “Test B Human Plasma Protein Binding (% free)” value in data set [1] is reported as 0.50 % free. Also, in data set [2], the “Test A Sinf” value came to 112% and the 50% effective concentration (EC50) was found to be 58 nM. This compound showed a microsomal CLint in data set [3] of 8.5 µL/min/mg. Also, the hepatocyte CLint in data set [4] is 55 µL/min/1e6 cells. Further, the solubility in data set [5] was 170 µM (≈ 99.4 µg/mL).
Take `COc1cc(F)c(O[C@H]2CC[C@@](C)(C(=O)O)CC2)cc1C(=O)N[C@@H]1COC[C@@H]1C(=O)Nc1ccc(F)c(C(F)(F)F)c1` [Example 52, (1R,4s)-4-(2-fluoro-5-(((3S,4R)-4-((4-fluoro-3-(trifluoromethyl)phenyl)carbamoyl)tetrahydrofuran-3-yl)carbamoyl)-4-methoxyphenoxy)-1-methylcyclohexane-1-carboxylic acid]: the “Test B Human Plasma Protein Binding (% free)” value in data set [1] was 0.94 % free. For the same compound, the “Test A Sinf” value in data set [2] was determined as 108%. The microsomal CLint in data set [3] worked out at 13 µL/min/mg. This compound registered an intrinsic metabolic clearance (hepatocyte CLint) in data set [4] of 34 µL/min/1e6 cells. Moreover, the concentration in solution in data set [5] (solubility) was 890 µM (≈ 534 µg/mL).
As to `COc1cc(F)c(O[C@H]2CC[C@@](C)(C(=O)O)CC2)cc1C(=O)Nc1cccc(Cl)c1C(=O)NCC1(C)CCC1` [Example 54, (1s,4s)-4-(5-((3-Chloro-2-(((1-methylcyclobutyl)methyl)carbamoyl)phenyl)carbamoyl)-2-fluoro-4-methoxyphenoxy)-1-methylcyclohexane-1-carboxylic acid], the “Test B Human Plasma Protein Binding (% free)” value in data set [1] is listed as 1.1 % free. Besides, in data set [2], the “Test A Sinf” value came to 108% and the EC50 worked out at 490 nM. The intrinsic metabolic clearance (microsomal CLint) in data set [3] was found to be 16 µL/min/mg. The compound further returned a hepatocyte CLint in data set [4] of 13 µL/min/1e6 cells. Further, the solubility in data set [5] came out at 2.8 µM (≈ 1.57 µg/mL).
Take `COc1cc(F)c(O[C@H]2CC[C@@](C)(C(=O)O)CC2)cc1C(=O)N[C@@H]1CCC[C@@H]1C(=O)NCC1(CF)CC1` [Example 56, (1S,4s)-4-(2-Fluoro-5-(((1R,2S)-2-(((1-(fluoromethyl)cyclopropyl)methyl)carbamoyl)cyclopentyl)carbamoyl)-4-methoxyphenoxy)-1-methylcyclohexane-1-carboxylic acid]: in data set [1], the “Test B Human Plasma Protein Binding (% free)” value was 21 % free. In data set [2], the “Test A Sinf” value stood at 105% and the EC50 was determined as 12000 nM. In addition, in data set [3], the microsomal CLint was below 3 µL/min/mg. Also, in data set [4], the hepatocyte CLint came out at 17 µL/min/1e6 cells. Besides, the solubility in data set [5] was found to be 980 µM (≈ 512 µg/mL).
Take `CCC(CC)CNC(=O)[C@H]1CCC[C@H]1NC(=O)c1cc(O[C@H]2CC[C@@](C)(C(=O)O)CC2)c(F)cc1OC` [Example 59, (1S,4s)-4-(5-(((1R,2S)-2-((2-Ethylbutyl)carbamoyl)cyclopentyl)carbamoyl)-2-fluoro-4-methoxyphenoxy)-1-methylcyclohexane-1-carboxylic acid]: in data set [1], the “Test B Human Plasma Protein Binding (% free)” value is reported as 2.4 % free. Further, in data set [2], the “Test A Sinf” value worked out at 100% and the EC50 amounted to 550 nM. This compound also came in with an intrinsic metabolic clearance (microsomal CLint) in data set [3] of 22 µL/min/mg. Besides, the intrinsic clearance (hepatocyte CLint) in data set [4] was found to be 27 µL/min/1e6 cells. Moreover, the solubility in data set [5] is 960 µM (≈ 500 µg/mL).
`COc1cc(F)c(O[C@H]2CC[C@@](C)(C(=O)O)CC2)cc1C(=O)N[C@@H]1CCC[C@@H]1C(=O)NCC1(C)CC1` [Example 68]: in data set [1], the “Test B Human Plasma Protein Binding (% free)” value is 14 % free. In addition, in data set [2], the “Test A Sinf” value is 97% and the concentration giving a half-maximal response (EC50) came to 840 nM. The compound further registered an intrinsic metabolic clearance (microsomal CLint) in data set [3] of 4.4 µL/min/mg. In data set [4], this compound returned a hepatocyte CLint of 14 µL/min/1e6 cells. For the same compound, the solubility in data set [5] was above 1000 µM.
Take `COc1cc(F)c(O[C@H]2CC[C@@](C)(C(=O)O)CC2)cc1C(=O)N[C@@H]1CCC[C@@H]1C(=O)NCC(C)(C)C#N` [Example 69]: the “Test B Human Plasma Protein Binding (% free)” value in data set [1] came out at 33 % free. Moreover, in data set [2], the “Test A Sinf” value is recorded as 93% and the concentration giving a half-maximal response (EC50) is above 2700 nM. The microsomal CLint in data set [3] was 6.3 µL/min/mg. The compound further came in with a hepatocyte CLint in data set [4] of 6.4 µL/min/1e6 cells. In data set [5], this compound yielded a solubility of 970 µM (≈ 502 µg/mL).
Regarding `COc1cc(C#N)c(O[C@H]2CC[C@@](C)(C(=O)O)CC2)cc1C(=O)N[C@@H]1[C@H]2CC[C@H](C2)[C@@H]1C(=O)NCC1CC1` [Example 71, (1S,4s)-4-(2-Cyano-5-(((1S,2R,3S,4R)-3-((cyclopropylmethyl)carbamoyl)bicyclo[2.2.1]heptan-2-yl)carbamoyl)-4-methoxyphenoxy)-1-methylcyclohexane-1-carboxylic acid], the “Test B Human Plasma Protein Binding (% free)” value in data set [1] came to 17 % free. Also, the EC50 in data set [2] was 390 nM. Besides, in data set [3], the microsomal CLint was below 3 µL/min/mg. In data set [4], this compound came in with a hepatocyte CLint of 28 µL/min/1e6 cells. This compound also displayed a solubility in data set [5] of 940 µM (≈ 492 µg/mL).
